In US7744889B2, “Alpha, beta-unsaturated sulfoxides for treating proliferative disorders” (Temple University - Of The Commonwealth System of Higher …, priority 2003, dated 2010):

Key:
[1] = test system: DU145, BT20, H157, DLD1; assay: Effect on tumor cell lines, viability by Trypan blue exclusion after 96 hours; assay type: cell-based; conditions: concentration required for 50% growth inhibition vs vehicle (DMSO) treated cells, doses 10 nM to 5 μM, one class for the four cell lines
Method: The effect of the α,β-unsaturated sulfoxides according to Formula I on tumor cells of prostate, colon, lung and breast origin was examined by utilizing the following cell lines: prostate tumor cell line DU-145; colorectal carcinoma cell line DLD-1; non-small cell lung carcinoma cell line H157; and breast tumor cell line BT-20. BT-20 is an estrogen-unresponsive cell line. BT-20, DLD-1 and H157 were grown in Dulbecco's modified Eagle's medium (DMEM) containing 10% fetal bovine serum supplemented with penicillin and streptomycin. DU145 was cultured in RPMI with 10% fetal bovine serum containing penicillin and streptomycin. NIH/3T3 (normal murine fibroblasts) and HFL-1cells (normal diploid human lung fibroblasts) were grown in DMEM containing 10% calf serum supplemented with penicillin and streptomycin.
Cells were plated at density levels of 1.0×10^5 cells per well in six-well plates. Cell cultures were maintained at 37° C. in a humidified atmosphere of 5% CO2.
Cells were treated with compounds of the invention at doses ranging from 10 nM to 5 μM concentration, and cell viability was determined after 96 hours by the Trypan blue exclusion method.
Values are reported as the GI50, i.e., the concentration (μM) required for 50% growth inhibition as compared to vehicle (DMSO) treated cells. The values reported in Table 7 are: ***=10-100 nM; **=100 nM-1μM; and *=>1μM.
Cells were treated with the test compound at concentrations in the range from 10 nM to 5 μM, and cell viability was determined after 96 hours by the Trypan blue exclusion method.

| SMILES | GI50 [1] [nM] | melting point [°C] |
| --- | --- | --- |
| COc1cc(OC)c(/C=C/[S+]([O-])Cc2ccc(OC)c([N+](=O)[O-])c2)c(OC)c1 (stereo not drawn) [Example 30] | > 1000 | 140 to 146 |
| COc1cc(OC)c(/C=C/[S+]([O-])Cc2ccc(OC)c(N)c2)c(OC)c1 (stereo not drawn) [Example 33, (E)-2,4,6-trimethoxystyryl-4-methoxy-3-aminobenzylsulfoxide] | 10 to 100 | 136 to 140 |
| COc1cc(OC)c(/C=C/[S+]([O-])Cc2ccc(OC)c(O)c2)c(OC)c1 (stereo not drawn) [Example 31] | 10 to 100 | 112 to 115 |
| COc1ccc(C[S+]([O-])/C=C/c2c(OC)cc(OC)cc2OC)cc1 (stereo not drawn) [Example 29] | 100 to 1000 | 92 to 94 |
| O=C(O)c1ccc(/C=C/[S+]([O-])Cc2ccc(Cl)cc2)cc1 (stereo not drawn) [Example 32] | – | 270 to 274 |
